Assay [1] addresses T1, Bifunctional epoxide hydrolase 2 (Homo sapiens) (UniProt P34913).
T1 sequence (whole entry): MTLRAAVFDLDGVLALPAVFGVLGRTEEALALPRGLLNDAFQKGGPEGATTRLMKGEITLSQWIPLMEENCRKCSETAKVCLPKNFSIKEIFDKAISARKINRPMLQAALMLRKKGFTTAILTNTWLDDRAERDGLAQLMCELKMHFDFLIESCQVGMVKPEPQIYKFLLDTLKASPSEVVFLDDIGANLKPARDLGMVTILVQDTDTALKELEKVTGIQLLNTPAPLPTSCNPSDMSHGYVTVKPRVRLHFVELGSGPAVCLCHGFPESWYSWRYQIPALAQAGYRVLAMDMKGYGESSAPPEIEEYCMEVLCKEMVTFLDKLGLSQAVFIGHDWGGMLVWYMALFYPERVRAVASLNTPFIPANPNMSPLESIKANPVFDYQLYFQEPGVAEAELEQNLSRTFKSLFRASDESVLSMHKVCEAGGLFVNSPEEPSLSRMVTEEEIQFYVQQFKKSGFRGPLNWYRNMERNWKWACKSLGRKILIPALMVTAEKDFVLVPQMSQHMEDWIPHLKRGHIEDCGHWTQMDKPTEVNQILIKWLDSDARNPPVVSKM
In words: Inhibition of human recombinant soluble epoxide hydrolase using (3-phenyl-oxiranyl)-acetic acid cyano-(6-methoxy-naphtalen-2-yl)-methyl ester as substrate at 100 uM incubated for 15 mins prior to substrate addition by fluorescence assay.

The target in assay [2] is T2, Bifunctional epoxide hydrolase 2 (Homo sapiens, UniProt P34913).
T2 sequence (P34913 whole entry): T1 sequence (whole entry)
As to the kind of experiment: Inhibition of human recombinant soluble epoxide hydrolase using (3-phenyl-oxiranyl)-acetic acid cyano-(6-methoxy-naphtalen-2-yl)-methyl ester as substrate incubated for 15 mins prior to substrate addition by fluorescence assay.

Here are results for 33 compounds from ChEMBL document CHEMBL2424549, “Design, synthesis and biological evaluation of 4-(1-(4(sulphanilamide)phenyl)-3-(methyl)-1H-pyrazol-5-yl)dine urea and N-acyl derivatives as a soluble epoxide hydrolase inhibitors” (Med Chem Res, 2013).

The term inhibition denotes the drop in the measured response relative to a control, in per cent. A word on the IC50: it is the point on the concentration scale where inhibition reaches its midpoint. For `CCCCNC(=O)N1CCC(c2cc(C)nn2-c2ccc(S(C)(=O)=O)cc2)CC1`, the inhibition in assay [1] turned out to be 99.5%. In addition, the IC50 in assay [2] came out at 0.269 µM.
In the case of `COc1ccc(C(=O)N2CCC(c3cc(C)nn3-c3ccc(S(C)(=O)=O)cc3)CC2)cc1`, the inhibition in assay [1] was found to be 15.2%.
On the same count and under the same terms, the value for `Cc1ccc(C(=O)N2CCC(c3cc(C)nn3-c3ccc(S(C)(=O)=O)cc3)CC2)cc1` was 42.1%.
For `CCCCNC(=O)N1CCC(c2cc(C)nn2-c2ccc(S(N)(=O)=O)cc2)CC1`, the inhibition in assay [1] is 82%. Moreover, in assay [2], the half-inhibitory concentration (IC50) turned out to be 10.1 µM.
With `CCCNC(=O)N1CCC(c2cc(C)nn2-c2ccc(S(N)(=O)=O)cc2)CC1`, the inhibition in assay [1] was found to be 68.6%.
The same measure, in the same setting: the value for `CCc1ccccc1NC(=O)N1CCC(c2cc(C)nn2-c2ccc(S(C)(=O)=O)cc2)CC1` was 54%; that for `Cc1cc(C2CCN(C(=O)Nc3ccccc3Cl)CC2)n(-c2ccc(S(N)(=O)=O)cc2)n1` was 54%.
The same measure, in the same setting: in the case of `CCNC(=O)N1CCC(c2cc(C)nn2-c2ccc(S(N)(=O)=O)cc2)CC1` it was 23.3%; in that of `Cc1cc(C2CCN(C(=O)NCc3ccccc3)CC2)n(-c2ccc(S(C)(=O)=O)cc2)n1`, 94.2%.
Consider `Cc1ccc(NC(=O)N2CCC(c3cc(C)nn3-c3ccc(S(N)(=O)=O)cc3)CC2)cc1`, for which the inhibition in assay [1] amounted to 105%. The IC50 in assay [2] was 0.224 µM.
As for `Cc1ccc(C(=O)N2CCC(c3cc(C)nn3-c3ccc(S(N)(=O)=O)cc3)CC2)cc1`, in assay [1], the inhibition was determined as 0%.
In the case of `Cc1cc(C2CCN(C(=O)Nc3ccc(Cl)cc3)CC2)n(-c2ccc(S(C)(=O)=O)cc2)n1`, the inhibition in assay [1] was determined as 54%.
In the case of `Cc1cc(C2CCN(C(=O)NC(C)C)CC2)n(-c2ccc(S(C)(=O)=O)cc2)n1`, the inhibition in assay [1] is 45.4%. The IC50 in assay [2] worked out at 13.6 µM.
With `CCNC(=O)N1CCC(c2cc(C)nn2-c2ccc(S(C)(=O)=O)cc2)CC1`, the inhibition in assay [1] turned out to be 54%.
`Cc1cc(C2CCN(C(=O)NC(C)C)CC2)n(-c2ccc(S(N)(=O)=O)cc2)n1`: in assay [1], the inhibition turned out to be 105%. In assay [2], the IC50 came to 22.3 µM.
Take `Cc1cc(C2CCN(C(=O)c3ccccc3)CC2)n(-c2ccc(S(N)(=O)=O)cc2)n1`: the inhibition in assay [1] came to 57.2%.
Regarding `Cc1cc(C2CCN(C(=O)NC3CCCCC3)CC2)n(-c2ccc(S(N)(=O)=O)cc2)n1`, in assay [1], the inhibition was 99%. Further, the concentration for half-maximal inhibition (IC50) in assay [2] is 0.275 µM.
Consider `Cc1cc(C2CCN(C(=O)NCc3ccccc3)CC2)n(-c2ccc(S(N)(=O)=O)cc2)n1`, for which, in assay [1], the inhibition was determined as 69.2%.
Same read-out and setting: the value for `CCCC(=O)N1CCC(c2cc(C)nn2-c2ccc(S(C)(=O)=O)cc2)CC1` was 54%.
For the compound `Cc1cc(C2CCN(C(=O)NC3CCCCC3)CC2)n(-c2ccc(S(C)(=O)=O)cc2)n1`, in assay [1], the inhibition was 114%. Also, the half-inhibitory concentration (IC50) in assay [2] amounted to 3.47 µM.
As for `CCCNC(=O)N1CCC(c2cc(C)nn2-c2ccc(S(C)(=O)=O)cc2)CC1`, in assay [1], the inhibition amounted to 54%.
Still for that read-out and setting: the value for `CCCC(=O)N1CCC(c2cc(C)nn2-c2ccc(S(N)(=O)=O)cc2)CC1` was 68.7%; that for `Cc1cc(C2CCN(C(=O)c3ccccc3)CC2)n(-c2ccc(S(C)(=O)=O)cc2)n1` was 54%.
As to `Cc1cc(C2CCN(C(=O)NCCc3ccccc3)CC2)n(-c2ccc(S(C)(=O)=O)cc2)n1`, the inhibition in assay [1] stood at 54%.
For `Cc1cc(C2CCN(C(=O)Nc3ccccc3)CC2)n(-c2ccc(S(N)(=O)=O)cc2)n1`, the inhibition in assay [1] is 92.7%. For the same compound, the IC50 in assay [2] turned out to be 16.7 µM.
In the case of `Cc1cc(C2CCN(C(=O)Nc3ccccc3)CC2)n(-c2ccc(S(C)(=O)=O)cc2)n1`, the inhibition in assay [1] was 89.9%. Also, the IC50 in assay [2] amounted to 0.22 µM.
`Cc1cc(C2CCN(C(=O)c3ccc(Cl)cc3)CC2)n(-c2ccc(S(N)(=O)=O)cc2)n1`: the inhibition in assay [1] turned out to be 32.5%.
The same measure, in the same setting: the value for `Cc1cc(C2CCN(C(=O)c3ccc([N+](=O)[O-])cc3)CC2)n(-c2ccc(S(C)(=O)=O)cc2)n1` was 54%; that for `Cc1cc(C2CCN(C(=O)c3ccc([N+](=O)[O-])cc3)CC2)n(-c2ccc(S(N)(=O)=O)cc2)n1` was 0%; that for `COc1ccc(C(=O)N2CCC(c3cc(C)nn3-c3ccc(S(N)(=O)=O)cc3)CC2)cc1` was 32.9%.
On to `Cc1cc(C2CCN(C(=O)c3ccc(Cl)cc3)CC2)n(-c2ccc(S(C)(=O)=O)cc2)n1`, for which, in assay [1], the inhibition amounted to 54%.
The same measure, in the same setting: the value for `Cc1cc(C2CCN(C(=O)Nc3ccccc3Cl)CC2)n(-c2ccc(S(C)(=O)=O)cc2)n1` was 54%.
The same measure, in the same setting: in the case of `Cc1ccc(NC(=O)N2CCC(c3cc(C)nn3-c3ccc(S(C)(=O)=O)cc3)CC2)cc1` it was 54%.
